Reference: patent US20170360991A1, “DRUG COMPOSITION AND COATING” (W. L. GORE & ASSOCIATES, INC., priority 2015, published 2017)
Where a name gives a salt, the structure may show the parent alone.

Columns and labels:
[1] = Ethylene oxide stability of cast paclitaxel-excipient films; assay type: physicochemical; settings: mean of N = 3
Method: Approximately 30 mg of excipient was weighed into a 7 mL glass vial and 6 mL of 75/25 v/v acetone/water was added. A small stirrer bar was added to each vial and all samples were stirred overnight at room temperature to ensure full dissolution. Next, a stock solution of paclitaxel in the casting solvent was made at 5 mg/mL. A specific volume of paclitaxel stock and excipient stock was added to a new vial to achieve the target paclitaxel/excipient weight fraction listed in Table 6. The vials were then mixed and aliquoted to N=6 of the 20 mL vials (0.5 mL each). A paclitaxel-only control was also added to N=6 vials (0.25 mL each). All vials were left in a fume hood overnight to evaporate the solvents. After drying, the samples were capped with cellulose membranes cut to septa size to allow ethylene oxide and moisture permeability. All samples were packaged in breathable polyethylene pouches. N=3 of each paclitaxel/excipient mixture were kept as non-sterilized controls, and the remainder (N=3) were sent for ethylene oxide sterilization (see Test Method D). Non-sterilized controls were stored at room temperature prior to analysis. Paclitaxel content analysis was performed as described in the Evaluation Methods section. Percent paclitaxel recovery was calculated by normalizing to either theoretical initial loading or pre-sterilized samples.

[2] = Ethylene oxide sterilization instability of paclitaxel-niacinamide formulations; settings: additive formulated with paclitaxel as solid coating
[3] = acetone, ethanol and aqueous mixtures thereof
Excerpt: As discussed in further detail below, coatings of the invention can be prepared by pipetting a solution containing therapeutic agent and excipient onto the device to be coated. […] Thus, in one embodiment the organic additive is not thiamine-HCl.

[4] = Early experiments on stability of organic additive in solution; assay type: physicochemical
Excerpt: Thus, vanillin is not suitable as an organic additive for the present invention.

In the case of `CC(=O)O[C@H]1C(=O)[C@@]2(C)[C@H]([C@H](OC(=O)c3ccccc3)[C@]3(O)C[C@H](OC(=O)[C@H](O)[C@@H](NC(=O)c4ccccc4)c4ccccc4)C(C)=C1C3(C)C)[C@]1(OC(C)=O)CO[C@@H]1C[C@@H]2O` [PTX only, paclitaxel], the “% PTX recovery, pre vs. post” value ([1]; cast formulations post ethylene oxide sterilization, normalized to pre-sterilized samples) is reported as 101.7% and the “% PTX recovery, theoretical vs. pre” value ([1]; cast formulations pre-sterilization, normalized to theoretical loading) is reported as 98.2%.
For `O=C([O-])c1ccccc1O.[Na+]` [sodium salicylate], the “paclitaxel degradation on ethylene oxide sterilization” value [2] was “cause degradation of the paclitaxel”.
With `Cc1ncc(C[n+]2csc(CCO)c2C)c(N)n1` [thiamine-HCl] the “solubility” value [3] was “poor solubility”.
For `COc1cc(C=O)ccc1O` [vanillin], the “stability in solution” value [4] was “easily degraded in solution”.
